Results as given in ChEMBL document CHEMBL1201862, “PubChem BioAssay data set” (2004).
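All cell lines were grown in 96-well plates and treated with compound for 48 hours. GI50: concentration for 50% inhibition of growth.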 Activity calls are given as the source filed them. No stated cut-off is given here; in the data, active = GI50 up to about 1.1 µM and inactive = higher.

Assays:
Experiment in all cases: NCI tumour cell line growth inhibition, 48 h
[1] = tested on: ACHN
[2] = tested on: DMS-114
[3] = tested on: HL-60
[4] = tested on: HOP-18
[5] = tested on: KM12
[6] = tested on: LXFL 529
[7] = tested on: M19-MEL
[8] = tested on: MDA-MB-231
[9] = tested on: NCI-H226
[10] = tested on: NCI-H522
[11] = tested on: OVCAR-4
[12] = tested on: OVCAR-5
[13] = tested on: PC-3
[14] = tested on: SF-268
[15] = tested on: SK-MEL-28
[16] = tested on: SK-MEL-5
[17] = tested on: SW-620
[18] = tested on: T47D
[19] = tested on: U-251
[20] = tested on: UACC-257

Measured: GI50

O=NN(CCCl)C(=O)NC1CCCCC1 [LOMUSTINE]
inactive: [1] 69.3 µM | [2] 45.8 µM | [3] 17.3 µM | [4] 31.6 µM | [5] 71.4 µM | [6] 47.4 µM | [7] 53 µM | [8] 21.6 µM | [9] 64.4 µM | [10] 24.4 µM | [11] 61.4 µM | [12] 81.1 µM | [13] 32.4 µM | [14] 24.5 µM | [15] 58.7 µM | [16] 54.7 µM | [17] 27.7 µM | [18] 31.6 µM | [19] 31.6 µM | [20] 54.2 µM

O=c1cc(-c2ccccc2)oc2ccc(Cl)cc12 [6-CHLOROFLAVONE]
inactive: [1] 61.2 µM | [2] 49.9 µM | [3] > 46.5 µM | [4] > 100 µM | [5] > 64.7 µM | [6] > 100 µM | [7] > 100 µM | [8] 18.1 µM | [9] > 84.7 µM | [10] 64.3 µM | [11] > 44.3 µM | [12] > 100 µM | [13] > 52.5 µM | [14] 31.8 µM | [15] > 65.6 µM | [16] > 100 µM | [17] > 92.7 µM | [18] 19.6 µM | [19] 37.7 µM | [20] > 54.5 µM
